Results on 23 compounds are retold here after US11230555B2, “Bicyclic RORγ modulators” (Escalier Biosciences B.V., priority 2018, dated 2022).

The structures appear in SMILES notation. A value given as a limit tells only on which side of the number the result lay.

For the experiment, the target named is T1, RORγt (Homo sapiens, UniProt P51449).
T1 construct: purchased reporter-cell kit
T1 sequence (P51449 269-508 limits assumed): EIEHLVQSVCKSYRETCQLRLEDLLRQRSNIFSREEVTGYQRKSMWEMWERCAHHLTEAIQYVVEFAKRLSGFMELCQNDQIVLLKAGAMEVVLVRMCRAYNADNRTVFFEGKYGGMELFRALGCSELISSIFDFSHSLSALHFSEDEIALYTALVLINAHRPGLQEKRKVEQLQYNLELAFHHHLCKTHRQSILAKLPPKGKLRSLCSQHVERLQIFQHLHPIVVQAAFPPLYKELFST
Briefly: Gal4 ligand binding assay (RORγt Gal fusion reporter assay). Format: cell-based. Conditions: inverse agonists, luciferase reporter, 24h. The method, then: Compounds of the present invention were tested in a human RORγ ligand binding assay using a commercially available cell based ligand binding reporter assay in 96-well format (Cat #IB04001, INDIGO Biosciences, State College, Pa.). The N-terminal DNA binding domains (DBD) of the native RORγ and RORγt receptors have been substituted with that of the yeast GAL4-DBD and stably transfected in […] cells that also stably express luciferase under the regulation by upstream activation sequence of yeast Gal4. These cells constitutively express high level RORγ activity due to binding of endogenous co-factors. Both agonist and inverse agonist activity can be detected. The assay was performed according to kit manufacturer's instructions as follows. 10 mM compound stocks were diluted serially 1:3 with DMSO and further diluted with provided media to generate 10 titration points from 60 μM to 3 nM. These treatment conditions were added to the plates as 2× media in 100 μL volume. Each plate includes a positive control with 10 titration points as well as 6negative control wells with vehicle only, with final DMSO concentration of 0.2%. RORγ reporter cells were rapidly thawed and added to the plates in 100 μL volume. The plates were incubated for 24h in a 37° C. humidified 5% CO2incubator. Media was removed before the addition of room temperature luciferous detection substrate. After 5 minute incubation, relative light units (RLUs) were quantified using a plate reading luminometer. Data was normalized to positive control wells with only […]. Before establishing internal controls, ursolic acid was used as control.
A word on the IC50: it is the concentration that inhibits the measured activity by half. Low readings indicate inhibition by little substance, high ones a need for much substance. In turn, `CCc1cc(CN2CC3CCC(C2)N3S(C)(=O)=O)ccc1-c1ccc(C(O)(C(F)(F)F)C(F)(F)F)cc1` [Example 52, 2-(2′-ethyl-4′-((8-(methylsulfonyl)-3,8-diazabicyclo[3.2.1]octan-3-yl)methyl)-[1,1′-biphenyl]-4-yl)-1,1,1,3,3,3-hexafluoropropan-2-ol] displayed an IC50 of less than 50 nM.

`COCC(=O)N1C2CCC1CN(Cc1ccc(-c3ccc(C(O)(C(F)(F)F)C(F)(F)F)cc3)c(C)c1)C2` [Example 54, 1-(3-((4′-(1,1,1,3,3,3-hexafluoro-2-hydroxypropan-2-yl)-2-methyl-[1,1′-biphenyl]-4-yl)methyl)-3,8-diazabicyclo[3.2.1]octan-8-yl)-2-methoxyethan-1-one] displayed an IC50 of 50 to 250 nM. On to `CS(=O)(=O)N1C2CCC1CN(c1cccc(-c3ccc(C(O)(C(F)(F)F)C(F)(F)F)cc3)c1)C2` [Example 9, 1,1,1,3,3,3-hexafluoro-2-(3′-(8-(methylsulfonyl)-3,8-diazabicyclo[3.2.1]octan-3-yl)-[1,1′-biphenyl]-4-yl)propan-2-ol], for which the IC50 was more than 250 nM. As to `Cc1cc(CN2CC3CC2CN3S(C)(=O)=O)ccc1-c1ccc(C(O)(C(F)(F)F)C(F)(F)F)cc1` (centres unmarked) [Example 49, 1,1,1,3,3,3-hexafluoro-2-(2′-methyl-4′-((5-(methylsulfonyl)-2,5-diazabicyclo[2.2.1]heptan-2-yl)methyl)-[1,1′-biphenyl]-4-yl)propan-2-ol], the IC50 is more than 250 nM. Next, `CCc1cc(CN2CC3CCC(C2)N3S(C)(=O)=O)ccc1-c1ccc(C(O)(C(F)(F)F)C(F)(F)F)cc1CC` [Example 25, 2-(2,2′-diethyl-4′-((8-(methylsulfonyl)-3,8-diazabicyclo[3.2.1]octan-3-yl)methyl)-[1,1′-biphenyl]-4-yl)-1,1,1,3,3,3-hexafluoropropan-2-ol]: less than 50 nM. In the case of `CCc1cc(CN2CC3CCC(C2)N3S(C)(=O)=O)ncc1-c1ccc(C(O)(C(F)(F)F)C(F)(F)F)cc1C` [Example 3, 2-(4-(4-ethyl-6-((8-(methylsulfonyl)-3,8-diazabicyclo[3.2.1]octan-3-yl)methyl)pyridin-3-yl)-3-methylphenyl)-1,1,1,3,3,3-hexafluoropropan-2-ol], the concentration for half-maximal inhibition (IC50) was 50 to 250 nM.

Turning to `CS(=O)(=O)N1C2CCC1CN(Cc1ccc(-c3ccc(C(O)(C(F)(F)F)C(F)(F)F)cc3)c(C(F)(F)F)c1)C2` [Example 57, 1,1,1,3,3,3-hexafluoro-2-(4′-((8-(methylsulfonyl)-3,8-diazabicyclo[3.2.1]octan-3-yl)methyl)-2′-(trifluoromethyl)-[1,1′-biphenyl]-4-yl)propan-2-ol], the IC50 fell in the range of 50 to 250 nM. For the compound `CCc1cc(CN2CC3CCC(C2)N3S(C)(=O)=O)c(F)c(F)c1-c1ccc(C(O)(C(F)(F)F)C(F)(F)F)cc1C` [Example 29, 2-(6′-ethyl-2′,3′-difluoro-2-methyl-4′-((8-(methylsulfonyl)-3,8-diazabicyclo[3.2.1]octan-3-yl)methyl)-[1,1′-biphenyl]-4-yl)-1,1,1,3,3,3-hexafluoropropan-2-ol], the IC50 was less than 50 nM. In the case of `CCc1cc(CN2C3CCC2CN(S(C)(=O)=O)C3)ccc1-c1ccc(C(O)(C(F)(F)F)C(F)(F)F)cc1Cl` [Example 7, 2-(2-chloro-2′-ethyl-4′-((3-(methylsulfonyl)-3,8-diazabicyclo[3.2.1]octan-8-yl)methyl)-[1,1′-biphenyl]-4-yl)-1,1,1,3,3,3-hexafluoropropan-2-ol], the half-inhibitory concentration (IC50) was less than 50 nM. As to `Cc1cc(CN2CC3CCC(C2)N3S(=O)(=O)C2CC2)ccc1-c1ccc(C(O)(C(F)(F)F)C(F)(F)F)cc1` [Example 64, 2-(4′-((8-(cyclopropylsulfonyl)-3,8-diazabicyclo[3.2.1]octan-3-yl)methyl)-2′-methyl-[1,1′-biphenyl]-4-yl)-1,1,1,3,3,3-hexafluoropropan-2-ol], the IC50 was in the range of 50 to 250 nM. Compound `CCc1cc(CN2CC3CCC(C2)N3S(C)(=O)=O)cc(F)c1-c1ccc(C(O)(C(F)(F)F)C(F)(F)F)cc1Cl` [Example 18, 2-(2-chloro-2′-ethyl-6′-fluoro-4′-((8-(methylsulfonyl)-3,8-diazabicyclo[3.2.1]octan-3-yl)methyl)-[1,1′-biphenyl]-4-yl)-1,1,1,3,3,3-hexafluoropropan-2-ol] displayed an IC50 of less than 50 nM. `Cc1cc(C(O)(C(F)(F)F)C(F)(F)F)ccc1-c1ccc(CN2CC3CCC(C2)N3S(C)(=O)=O)cc1C(C)C` [Example 35, 1,1,1,3,3,3-hexafluoro-2-(2′-isopropyl-2-methyl-4′-((8-(methylsulfonyl)-3,8-diazabicyclo[3.2.1]octan-3-yl)methyl)-[1,1′-biphenyl]-4-yl)propan-2-ol] registered a concentration for half-maximal inhibition (IC50) of 50 to 250 nM.

For the compound `CCS(=O)(=O)N1C2CCC1CN(Cc1ccc(-c3ccc(C(O)(C(F)(F)F)C(F)(F)F)cc3)c(C)c1)C2` [Example 69, 2-(4′-((8-(ethylsulfonyl)-3,8-diazabicyclo[3.2.1]octan-3-yl)methyl)-2'-methyl-[1,1′-biphenyl]-4-yl)-1,1,1,3,3,3-hexafluoropropan-2-ol], the IC50 is more than 250 nM. `CCc1cc(CN2CC3CCC(C2)N3Cc2ccncc2)ccc1-c1ccc(C(O)(C(F)(F)F)C(F)(F)F)cc1` [Example 53, 2-(2′-ethyl-4′-((8-(pyridin-4-ylmethyl)-3,8-diazabicyclo[3.2.1]octan-3-yl)methyl)-[1,1′-biphenyl]-4-yl)-1,1,1,3,3,3-hexafluoropropan-2-ol] gave an IC50 of less than 50 nM. In turn, `Cc1cc(CN2CC3CCC(C2)C3NS(C)(=O)=O)ccc1-c1ccc(C(O)(C(F)(F)F)C(F)(F)F)cc1` (centres unmarked) [Example 46, N-(3-((4′-(1,1,1,3,3,3-hexafluoro-2-hydroxypropan-2-yl)-2-methyl-[1,1′-biphenyl]-4-yl)methyl)-3-azabicyclo[3.2.1]octan-8-yl)methanesulfonamide] came in with a 50% inhibitory concentration (IC50) of more than 250 nM. In turn, `Cc1cc(CN2CC3CCC(C2)N3S(=O)(=O)c2ccc(F)cc2)ccc1-c1ccc(C(O)(C(F)(F)F)C(F)(F)F)cc1` [Example 62, 1,1,1,3,3,3-hexafluoro-2-(4′-((8-((4-fluorophenyl)sulfonyl)-3,8-diazabicyclo[3.2.1]octan-3-yl)methyl)-2′-methyl-[1,1′-biphenyl]-4-yl)propan-2-ol] came in with an IC50 of more than 250 nM. As for `CCc1c(-c2ccc(C(O)(C(F)(F)F)C(F)(F)F)cc2Cl)cc(F)c(CN2CC3CCC(C2)N3S(C)(=O)=O)c1F` [Example 10, 2-(2-chloro-2′-ethyl-3′,5′-difluoro-4′-((8-(methylsulfonyl)-3,8-diazabicyclo[3.2.1]octan-3-yl)methyl)-[1,1′-biphenyl]-4-yl)-1,1,1,3,3,3-hexafluoropropan-2-ol], the IC50 is less than 50 nM. In the case of `CCc1cc(CN2CC3CCC(C2)N3S(C)(=O)=O)ccc1-c1ccc(C(O)(C(F)(F)F)C(F)(F)F)cc1F` [Example 24, 2-(2′-ethyl-2-fluoro-4′-((8-(methylsulfonyl)-3,8-diazabicyclo[3.2.1]octan-3-yl)methyl)-[1,1′-biphenyl]-4-yl)-1,1,1,3,3,3-hexafluoropropan-2-ol] it was less than 50 nM. Compound `OC(c1ccc(-c2ccc(CN3CC4CCC(C3)N4Cc3ccncc3)cc2Br)cc1)(C(F)(F)F)C(F)(F)F` [Example 41, 2-(2′-bromo-4′-((8-(pyridin-4-ylmethyl)-3,8-diazabicyclo[3.2.1]octan-3-yl)methyl)-[1,1′-biphenyl]-4-yl)-1,1,1,3,3,3-hexafluoropropan-2-ol] yielded an IC50 of less than 50 nM. For the compound `CCc1cc(CN2CC3CCC2CN3S(C)(=O)=O)ccc1-c1ccc(C(O)(C(F)(F)F)C(F)(F)F)cc1` (centres unmarked) [Example 37, 2-(2′-ethyl-4′-((5-(methylsulfonyl)-2,5-diazabicyclo[2.2.2]octan-2-yl)methyl)-[1,1′-biphenyl]-4-yl)-1,1,1,3,3,3-hexafluoropropan-2-ol], the IC50 lay in the range of 50 to 250 nM.

`CCN1C2CCC1CN(Cc1ccc(-c3ccc(C(O)(C(F)(F)F)C(F)(F)F)cc3)c(C)c1)C2` [Example 42, 2-(4′-((8-ethyl-3,8-diazabicyclo[3.2.1]octan-3-yl)methyl)-2′-methyl-[1,1′-biphenyl]-4-yl)-1,1,1,3,3,3-hexafluoropropan-2-ol]: the concentration for half-maximal inhibition (IC50) was more than 250 nM. Regarding `CCc1cc(CN2C3CCC2CN(S(C)(=O)=O)C3)ccc1-c1ccc(C(O)(C(F)(F)F)C(F)(F)F)cc1` [Example 6, 2-(2′-ethyl-4′-((3-(methylsulfonyl)-3,8-diazabicyclo[3.2.1]octan-8-yl)methyl)-[1,1′-biphenyl]-4-yl)-1,1,1,3,3,3-hexafluoropropan-2-ol], the half-inhibitory concentration (IC50) lay in the range of 50 to 250 nM. For the compound `CCc1cc(CN2CC3CCC(C2)N3S(C)(=O)=O)ncc1-c1ccc(C(O)(C(F)(F)F)C(F)(F)F)cc1Cl` [Example 4, 2-(3-chloro-4-(4-ethyl-6-((8-(methylsulfonyl)-3,8-diazabicyclo[3.2.1]octan-3-yl)methyl)pyridin-3-yl)phenyl)-1,1,1,3,3,3-hexafluoropropan-2-ol], the IC50 was in the range of 50 to 250 nM.
